{
  "source": "ChEMBL document CHEMBL3603747",
  "about": "“Discovery, design, and synthesis of indole-based EZH2 inhibitors” (Bioorg Med Chem Lett, 2015)",
  "format_in_all_cases": "ADME, organism-based",
  "key": {"[1]": {"assay": "Volume of distribution at steady state in CB17 SCID mouse at 1 mg/kg, iv by LC-MS method", "conditions": "in vivo, read-out: Vdss"}, "[2]": {"assay": "AUC in CB17 SCID mouse at 1 mg/kg, iv by LC-MS method", "conditions": "in vivo"}, "[3]": {"assay": "AUC in CB17 SCID mouse at 200 mg/kg, sc by LC-MS method", "conditions": "in vivo"}, "[4]": {"assay": "Cmax in CB17 SCID mouse at 200 mg/kg, sc by LC-MS method", "set-up": "dose 200 mg/kg, route subcutaneous", "conditions": "in vivo"}},
  "data": [
    {"smiles": "CCS(=O)(=O)N1CCC([C@@H](C)n2c(C)c(C(=O)NCc3c(OC)cc(C)[nH]c3=O)c3ccccc32)CC1", "values": [
      {"measurement": "Vd", "setting": "[1]", "value": 0.795, "unit": "L/kg"},
      {"measurement": "AUC", "setting": "[2]", "value": 362, "unit": "ng·h/mL"},
      {"measurement": "AUC", "setting": "[3]", "value": 51000, "unit": "ng·h/mL"},
      {"measurement": "Cmax", "setting": "[4]", "value": 9150, "unit": "ng/mL"}
    ]}
  ]
}
